Values quoted from earlier work as cited in patent US20240066015A1, “TREATMENT OF PAIN ASSOCIATED WITH PARKINSON'S DISEASE” (BIAL-PORTELA & CA., S.A., priority 2021, published 2024).
Blank lines part the entries; values can stand above or below the compound they belong to.

What was measured:
[1] = oral administration, peripheral metabolism by DDC and COMT
[2] = transdermal patch, patients with advanced-stage PD; trial not powered for statistical significance
[3] = patients with PD and end-of-dose motor fluctuations
[4] = in comparison with placebo, added to levodopa-based therapy
[5] = hot plate test
[6] = BIPARK-II trial and OPTIPARK study

- share of an oral dose that reaches the brain [1]: 1%
Structure (SMILES): N[C@@H](Cc1ccc(O)c(O)c1)C(=O)O [levodopa]

Structure (SMILES): CCCN(CCc1cccs1)[C@H]1CCc2c(O)cccc2C1 [rotigotine]
- PD-associated chronic pain [2]: may improve

Structure (SMILES): Cc1c(Cl)c(C)[n+]([O-])c(Cl)c1-c1noc(-c2cc(O)c(O)c([N+](=O)[O-])c2)n1 [opicapone]
- OFF-time [3]: efficacious in reducing OFF-time
- tolerability [3]: generally well tolerated
- NMSS "Miscellaneous" domain effect compared with placebo (BIPARK-II trial): less than for that observed for placebo
- NMSS "Miscellaneous" domain (includes pain as one aspect) [6]: positive signal
- specific effect on pain [6]: no specific effect on pain was identifiable

Structure (SMILES): C[C@H](NCc1ccc(OCc2cccc(F)c2)cc1)C(N)=O [Safinamide]
- PDQ-39 pain-related items [4]: significantly improve two out of three
- need for pain medication [4]: significantly reduce

Structure (SMILES): CC(=O)C(=Cc1cc(O)c(O)c([N+](=O)[O-])c1)C(C)=O [nitecapone]
- mediation of the analgesic effect [5]: not mediated through the CNS
